We go through 23 molecules from US20070049593A1 (priority 2004, published 2007).

The structures appear in SMILES notation. pIC50: −log10 of the molar value. Where a name gives a salt, the structure may show the parent alone. A value given as a limit tells only on which side of the number the result lay.

The target of this test is T1, HCV polymerase (Hepatitis C virus genotype 1b, UniProt P26663).
T1 construct: a region encoding NS5B (J Virol 1991 March, 65(3), 1105-13, 544 amino acids after deletion of 47 amino acids on the C-terminal); 6xHis (C); made in house; host or cells: Escherichia coli
Nature of the test: biochemical. Further details: species or system HCV BK strain. The text has this: The evaluation of the HCV polymerase inhibitory activity of the compound of the present invention is explained in the following. This polymerase is an enzyme coded for by the non-structural protein region called NS5B on the genome RNA of HCV (EMBO J., 15:12-22, 1996).
Using, as a template, a cDNA clone corresponding to the full length genome RNA of HCV BK strain obtained from the blood of a patient with hepatitis C, a region encoding NS5B (J Virol 1991 March, 65(3), 1105-13, 544 amino acids after deletion of 47 amino acids on the C-terminal) was amplified by PCR. The objective gene was prepared by adding a 6 His tag {base pair encoding 6 continuous histidine (His)}to the 3′ end thereof and transformed to Escherichia coli. The Escherichia coli capable of producing the objective protein was cultured. The obtained cells were suspended in a buffer solution and crushed in a microfluidizer.
Using a synthetic primer designed based on the sequence of HCV genomic 3′ untranslated region, a DNA fragment (148 bp) containing polyU and 3′X sequence was entirely synthesized and cloned into plasmid pBluescript SK II(+) (Stratagene). The cDNA encoding full length NS5B, which was prepared in i) above, was digested with restriction enzyme KpnI to give a cDNA fragment containing the nucleotide sequence of from the restriction enzyme cleavage site to the termination codon. This cDNA fragment was inserted into the upstream of 3′ untranslated region of the DNA in pBluescript SK II(+) and ligated. The about 450 bp inserted DNA sequence was used as a template in the preparation of substrate RNA.
RNA was synthesized (37° C., 3 hr) by run-off method using this purified DNA as a template, a promoter of pBluescript SK II(+), MEGAscript RNA synthesis kit (Ambion) and T7 RNA polymerase. DNase I was added and the mixture was incubated for 1 hr. The template DNA was removed by decomposition to give a crude RNA product.
A test substance (compound of the present invention) and a reaction mixture (30 μl) having the following composition were reacted at 25° C. for 90 min.
10% Trichloroacetic acid at 4° C. and 1% sodium pyrophosphate solution (150 μl) were added to this reaction mixture to stop the reaction. The reaction mixture was left standing in ice for 15 min to insolubilize RNA. This RNA was trapped on a glass filter (Whatman GF/C and the like) upon filtration by suction. This filter was washed with a solution containing 1% trichloroacetic acid and 0.1% sodium pyrophosphate, washed with 90% ethanol and dried. A liquid scintillation cocktail (Packard) was added and the radioactivity of RNA synthesized by the enzyme reaction was measured on a liquid scintillation counter.
The HCV polymerase inhibitory activity (IC50) of the compound of the present invention was calculated from the values of radioactivity of the enzyme reaction with and without the test substance.
Reaction mixture: HCV polymerase (0.5 μg/ml) obtained in i), substrate RNA (5 μg/ml) obtained in ii), ATP (50 μM), GTP (50 μM), CTP ([…]), UTP (2 μM), [5,6-^3H]UTP (46 Ci/mmol (Amersham), 1 μCi) 20 mM Tris-HCl (pH 7.5), EDTA (1 mM), MgCl2 (5 mM), NaCl (50 mM), DTT (1 mM), BSA (0.01%)

Usually pIC50 stands for −log10 of the IC50, conventionally taken in molar units. A higher pIC50 goes with a small IC50.

T1 sequence (P26663 2420-2963): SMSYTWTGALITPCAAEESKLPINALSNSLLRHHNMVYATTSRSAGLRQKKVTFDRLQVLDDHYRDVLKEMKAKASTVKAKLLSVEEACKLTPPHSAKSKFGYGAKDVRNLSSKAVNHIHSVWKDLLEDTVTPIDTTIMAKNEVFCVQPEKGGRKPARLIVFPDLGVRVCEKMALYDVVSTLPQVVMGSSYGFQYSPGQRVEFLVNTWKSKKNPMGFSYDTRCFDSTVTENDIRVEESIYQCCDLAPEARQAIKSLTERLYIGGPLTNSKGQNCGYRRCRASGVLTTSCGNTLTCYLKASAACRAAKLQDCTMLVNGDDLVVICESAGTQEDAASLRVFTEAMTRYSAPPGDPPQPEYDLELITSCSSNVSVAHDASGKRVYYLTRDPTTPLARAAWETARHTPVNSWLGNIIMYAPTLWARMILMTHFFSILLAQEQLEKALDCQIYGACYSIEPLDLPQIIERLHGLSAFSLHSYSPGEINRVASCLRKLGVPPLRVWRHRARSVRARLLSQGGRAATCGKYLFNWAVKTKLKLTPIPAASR

Regarding `O=C(O)c1ccc2c(C3CCCCC3)c3n(c2c1)CCNc1ccccc1-3` [Example 1-3, 13-cyclohexyl-6,7-dihydro-5H-benzo[5,6][1,4]diazepino[7,1-a]indole-10-carboxylic acid monohydrochloride], the pIC50 was more than 7.00.
In the case of `O=C(O)c1ccc2c(C3CCCCC3)c3n(c2c1)CCN(CC(=O)N1CCSCC1)c1ccccc1-3` [Example 1-7, 13-cyclohexyl-5-[2-oxo-2-(thiomorpholin-4-yl)ethyl]-6,7-dihydro-5H-benzo[5,6][1,4]diazepino[7,1-a]indole-10-carboxylic acid monohydrochloride] it was more than 7.00.
In the case of `O=C(O)c1ccc2c(C3CCCCC3)c3n(c2c1)CCN(CCN1CCSCC1)c1ccccc1-3` [Example 1-9, 13-cyclohexyl-5-[2-(thiomorpholin-4-yl)ethyl]-6,7-dihydro-5H-benzo[5,6][1,4]diazepino[7,1-a]indole-10-carboxylic acid dihydrochloride], the pIC50 was more than 7.00.
Molecule `O=C(O)c1ccc2c(C3CCCCC3)c3n(c2c1)CCN(CCN1CCCCC1)c1cc(Cl)ccc1-3` [Example 1-14, 3-chloro-13-cyclohexyl-5-[2-(piperidin-1-yl)ethyl]-6,7-dihydro-5H-benzo[5,6][1,4]diazepino[7,1-a]indole-10-carboxylic acid dihydrochloride] showed a pIC50 of more than 7.00.
Next, `O=C(O)c1ccc2c(C3CCCCC3)c3n(c2c1)CCN(CCN1CCCCC1)c1ccc(F)cc1-3` [Example 1-18, 13-cyclohexyl-2-fluoro-5-[2-(piperidin-1-yl)ethyl]-6,7-dihydro-5H-benzo[5,6][1,4]diazepino[7,1-a]indole-10-carboxylic acid dihydrochloride]: more than 7.00.
Regarding `CC(=O)N1CCn2c(c(C3CCCCC3)c3ccc(C(=O)O)cc32)-c2ccccc21` [Example 1-19, 5-acetyl-13-cyclohexyl-6,7-dihydro-5H-benzo[5,6][1,4]diazepino[7,1-a]indole-10-carboxylic acid], the pIC50 is 6.00 to 7.00.
In the case of `CN1CCn2c(c(C3CCCCC3)c3ccc(C(=O)O)cc32)-c2ccccc21` [Example 1-20, 13-cyclohexyl-5-methyl-6,7-dihydro-5H-benzo[5,6][1,4]diazepino[7,1-a]indole-10-carboxylic acid] it was more than 7.00; in that of `CN(C)C(=O)CN1CCn2c(c(C3CCCCC3)c3ccc(C(=O)O)cc32)-c2ccccc21` [Example 1-21, 13-cyclohexyl-5-dimethylcarbamoylmethyl-6,7-dihydro-5H-benzo[5,6][1,4]diazepino[7,1-a]indole-10-carboxylic acid], more than 7.00; in that of `O=C(O)c1ccc2c(C3CCCCC3)c3n(c2c1)CCN(Cc1ccccc1)c1ccccc1-3` [Example 1-22, 5-benzyl-13-cyclohexyl-6,7-dihydro-5H-benzo[5,6][1,4]diazepino[7,1-a]indole-10-carboxylic acid], more than 7.00.
The molecule `CC(C)N1CCn2c(c(C3CCCCC3)c3ccc(C(=O)O)cc32)-c2ccccc21` [Example 1-23, 13-cyclohexyl-5-isopropyl-6,7-dihydro-5H-benzo[5,6][1,4]diazepino[7,1-a]indole-10-carboxylic acid monohydrochloride] had a pIC50 of more than 7.00.
In the case of `O=C1Cn2c(c(C3CCCCC3)c3ccc(C(=O)O)cc32)-c2ccccc2N1` [Example 1-24, 13-cyclohexyl-6-oxo-6,7-dihydro-5H-benzo[5,6][1,4]diazepino[7,1-a]indole-10-carboxylic acid], the pIC50 was more than 7.00.
On to `O=C(CN1CCn2c(c(C3CCCCC3)c3ccc(C(=O)O)cc32)-c2ccccc21)NCc1ccccc1` [Example 1-25, 5-(benzylcarbamoylmethyl)-13-cyclohexyl-6,7-dihydro-5H-benzo[5,6][1,4]diazepino[7,1-a]indole-10-carboxylic acid], for which the pIC50 is more than 7.00.
`O=C(O)c1ccc2c(C3CCCCC3)c3n(c2c1)CCN(CC(=O)N1CCOCC1)c1ccccc1-3` [Example 1-26, 13-cyclohexyl-5-[2-(morpholin-4-yl)-2-oxoethyl]-6,7-dihydro-5H-benzo[5,6][1,4]diazepino[7,1-a]indole-10-carboxylic acid] had a pIC50 of more than 7.00.
Next, `O=C(O)c1ccc2c(C3CCCCC3)c3n(c2c1)CCN(CCN1CCOCC1)c1ccccc1-3` [Example 1-27, 13-cyclohexyl-5-[2-(morpholin-4-yl)ethyl]-6,7-dihydro-5H-benzo[5,6][1,4]diazepino[7,1-a]indole-10-carboxylic acid dihydrochloride]: more than 7.00; `COc1ccc2c(c1)N(CC(=O)N(C)C)CCn1c-2c(C2CCCCC2)c2ccc(C(=O)O)cc21` [Example 1-28, 13-cyclohexyl-5-dimethylcarbamoylmethyl-3-methoxy-6,7-dihydro-5H-benzo[5,6][1,4]diazepino[7,1-a]indole-10-carboxylic acid]: more than 7.00.
In the case of `O=C(O)c1ccc2c(C3CCCCC3)c3n(c2c1)CCN(CC(=O)N1CCCCC1)c1ccccc1-3` [Example 1-29, 13-cyclohexyl-5-[2-oxo-2-(piperidin-1-yl)ethyl]-6,7-dihydro-5H-benzo[5,6][1,4]diazepino[7,1-a]indole-10-carboxylic acid] it was more than 7.00.
Next, `CCN1CCN(C(=O)CN2CCn3c(c(C4CCCCC4)c4ccc(C(=O)O)cc43)-c3ccccc32)CC1` [Example 1-30, 13-cyclohexyl-5-[2-(4-ethylpiperazin-1-yl)-2-oxoethyl]-6,7-dihydro-5H-benzo[5,6][1,4]diazepino[7,1-a]indole-10-carboxylic acid dihydrochloride]: more than 7.00.
The molecule `CN(C)C(=O)N1CCn2c(c(C3CCCCC3)c3ccc(C(=O)O)cc32)-c2ccccc21` [Example 1-31, 13-cyclohexyl-5-dimethylcarbamoyl-6,7-dihydro-5H-benzo[5,6][1,4]diazepino[7,1-a]indole-10-carboxylic acid] showed a pIC50 of 6.00 to 7.00.
`O=C(O)c1ccc2c(C3CCCCC3)c3n(c2c1)CCN(CCN1CCCCC1)c1ccccc1-3` [Example 1-32, 13-cyclohexyl-5-[2-(piperidin-1-yl)ethyl]-6,7-dihydro-5H-benzo[5,6][1,4]diazepino[7,1-a]indole-10-carboxylic acid dihydrochloride] had a pIC50 of more than 7.00.
In the case of `O=C(CN1CCn2c(c(C3CCCCC3)c3ccc(C(=O)O)cc32)-c2ccccc21)NCc1ccccn1` [Example 1-33, 13-cyclohexyl-5-{[(pyridin-2-ylmethyl)carbamoyl]methyl}-6,7-dihydro-5H-benzo[5,6][1,4]diazepino[7,1-a]indole-10-carboxylic acid dihydrochloride] it was more than 7.00; in that of `O=C(O)c1ccc2c(C3CCCCC3)c3n(c2c1)CCN(CCNCc1ccccn1)c1ccccc1-3` [Example 1-34, 13-cyclohexyl-5-{2-[(pyridin-2-ylmethyl)amino]ethyl}-6,7-dihydro-5H-benzo[5,6][1,4]diazepino[7,1-a]indole-10-carboxylic acid trihydrochloride], more than 7.00; in that of `O=C(O)c1ccc2c(C3CCCCC3)c3n(c2c1)CCN(CC(=O)N1CCC(O)CC1)c1ccccc1-3` [Example 1-35, 13-cyclohexyl-5-[2-(4-hydroxypiperidin-1-yl)-2-oxoethyl]-6,7-dihydro-5H-benzo[5,6][1,4]diazepino[7,1-a]indole-10-carboxylic acid monohydrochloride], more than 7.00.
In the case of `COC1CCN(C(=O)CN2CCn3c(c(C4CCCCC4)c4ccc(C(=O)O)cc43)-c3ccccc32)CC1` [Example 1-36, 13-cyclohexyl-5-[2-(4-methoxypiperidin-1-yl)-2-oxoethyl]-6,7-dihydro-5H-benzo[5,6][1,4]diazepino[7,1-a]indole-10-carboxylic acid monohydrochloride], the pIC50 is more than 7.00.
